Data taken from US4975354A, “Photographic element comprising an ethyleneoxy-substituted amino compound and process adapted to provide high constrast development” (Eastman Kodak Company, priority 1989, dated 1990).

Assay: Example 33: Film A (no incorporated booster) in Developer A versus Film B (Compound XIII) in Developer B, 80 seconds at 30° C.
Conditions: Table III data
Description: This example was carried out using photographic elements similar to those of Examples 1 to 32 except that the nucleating agent employed was a mixture of the hydrazine compound: [drawing 33] at a coverage of 0.0121 g/m^2 and the hydrazine compound: [drawing 34] at a coverage of 0.00237 g/m^2.
A film designated Film A was prepared with no incorporated booster compound, while a film designated Film B contained 0.0861 g/m^2 of Compound XIII. A developing solution, designated Developer A, was formulated from the following ingredients: […]
A second developing solution, designated Developer B, differed from Developer A in that the 3-diethylamino-1,2-propanediol was omitted.
Film A was developed in Developer A at a pH of 11.6 for 80 seconds at 30° C. Film B was developed in Developer B for 80 seconds at 30° C. at pH levels of 11.6, 11.5 and 11.4. The pH's of the developing solutions were adjusted to the designated levels using concentrated potassium hydroxide and concentrated hydrochloric acid.

CCN(CC)CC(O)CO (stereo not shown) [3-diethylamino-1,2-propanediol]
booster activity (in words): highly effective booster compound
